Reference: US20230295234A1, “ANTIMICROBIAL PEPTIDOMIMETICS” (SPEXIS AG, priority 2020, published 2023)
Read-outs that look alike come from different tables or passages of the source. Bridge positions count the residues as written; N and C are the ends. Square brackets hold non-standard residues; d marks the D form. Peptide text beside a SMILES is read from it. Gly(N-2-aminoethyl) = NCCNCC(=O)O; Hyp = O=C(O)[C@@H]1C[C@@H](O)CN1; Gly(N(CH2)3NH2) = NCCCNCC(=O)O; Pen = CC(C)(S)[C@H](N)C(=O)O; dDab = NCC[C@@H](N)C(=O)O; Dab = NCC[C@H](N)C(=O)O

Tests used:
[1] = system: human red blood cells (hRBC); assay: Hemolysis of human red blood cells; assay type: cell-based; details: red cells of human, 1 h
Method in brief: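 Percent hemolysis is OD540 of peptide-treated supernatant relative to water-lysed cells. Each peptide was tested at 200 μg/mL against 20% (v/v) washed human erythrocytes. Incubation was 1 h at 37 °C, 300 rpm.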

[2] = system: Escherichia coli ATCC 25922; details: ATCC 25922
Method in brief: (§1)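 Peptides were made up as 1 mg/mL stocks in sterile water. Colonies in 0.85% saline were set to 0.5 McFarland, then diluted in cation-adjusted Mueller-Hinton II broth to about 5×10^5 CFU/mL. Inoculum was combined with two-fold serial peptide dilutions in water containing 0.002% (final) polysorbate 80.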

[3] = system: Escherichia coli MCR-1 Af 45
Method in brief: as §1

[4] = system: Klebsiella pneumoniae SSI3010; details: SSI3010
Method in brief: as §1

| SMILES | Hemolysis at 0.2 g/L [1] [%] | Escherichia coli ATCC 25922 MIC [2] [µg/mL] | Escherichia coli MCR-1 Af 45 MIC ([3]; MCR-1 Af 45) [µg/mL] | Klebsiella pneumoniae SSI3010 MIC [4] [µg/mL] | Escherichia coli MCR-1 Af 45 MIC ([3]; Mueller-Hinton broth II, 18-20 hours at 35° C.) [µg/mL] |
| --- | --- | --- | --- | --- | --- |
| CCCC[C@H](NC(=O)[C@H](CCCNC(=N)N)NC(=O)[C@H](CCN)NC(=O)[C@@H]1CSSC(C)(C)[C@H](NC(=O)[C@H](Cc2ccc(O)cc2)NC(=O)[C@@H](NC(=O)[C@@H](NC(=O)[C@@H]2CCCN2C(=O)[C@@H](NC(=O)CN(CCN)CCN)C(C)C)[C@@H](C)CC)[C@@H](C)CC)C(=O)N[C@@H](CC(N)=O)C(=O)N[C@@H](CCCNC(=N)N)C(=O)N[C@@H](CCCNC(=N)N)C(=O)N[C@@H]([C@@H](C)O)C(=O)N[C@H](CCN)C(=O)N[C@@H](CCCCN)C(=O)N1)C(=O)O [Example 39, Bis(2aminoethyl)Gly-Val-Pro-Ile-Ile-Tyr-Pen-Asn-Arg-Arg-Thr-^DDab-Lys-Cys-Dab-Arg-Nle] (HELM PEPTIDE1{[NCCN(CCN)CC(=O)[*:2]].V.P.I.I.Y.[Pen].N.R.R.T.[NCC[C@@H](N[*:1])C(=O)[*:2]].K.C.[Dab].R.[Nle]}$PEPTIDE1,PEPTIDE1,7:R3-14:R3$$$V2.0) | 0 | 0.0625 | ≤0.03125 | 0.0625 | – |
| CC[C@H](C)[C@H](NC(=O)CN(CCN)C(=O)[C@@H](NC(=O)[C@@H]1C[C@@H](O)CN1C(=O)CNCCCN)C(C)C)C(=O)N[C@H](C(=O)N[C@@H](Cc1ccc(O)cc1)C(=O)N[C@@H]1C(=O)N[C@@H](CC(N)=O)C(=O)N[C@@H](CCCNC(=N)N)C(=O)N[C@@H](CCN)C(=O)N[C@@H]([C@@H](C)O)C(=O)N[C@H](CCN)C(=O)N[C@@H](CCCCN)C(=O)N[C@H](C(=O)N[C@@H](CCN)C(=O)N[C@@H](CCCNC(=N)N)C(=O)N[C@@H](Cc2ccc(O)cc2)C(=O)O)CSSC1(C)C)[C@@H](C)O [Example 48, Norn-Hyp-Val-Ndab-Ile-Thr-Tyr-Pen-Asn-Arg-Dab-Thr-^DDab-Lys-Cys-Dab-Arg-Tyr] (H-[Gly(N(CH2)3NH2)][Hyp]V[Gly(N-2-aminoethyl)]ITY[Pen]NR[Dab]T[dDab]KC[Dab]RY-OH; disulfide 8-15; N-terminus and C-terminus assumed) | 0 | 0.125 | 0.0625 | 0.25 | – |
| CCCC[C@H](NC(=O)[C@H](CCCNC(=N)N)NC(=O)[C@H](CCCNC(=N)N)NC(=O)[C@@H]1CSSC[C@H](NC(=O)[C@H](Cc2ccc(O)cc2)NC(=O)[C@@H](NC(=O)[C@@H](NC(=O)[C@@H]2CCCN2C(=O)[C@@H](NC(=O)[C@@H]2CCCN2C(=O)[C@H](CCCCN)NC(=O)[C@@H](N)CCCCN)C(C)C)[C@@H](C)CC)[C@@H](C)CC)C(=O)N[C@@H](CC(N)=O)C(=O)N[C@@H](CCCNC(=N)N)C(=O)N[C@@H](CCN)C(=O)N[C@@H]([C@@H](C)O)C(=O)N[C@H](CCN)C(=O)N[C@@H](CCN)C(=O)N1)C(=O)O [Example 65] (HELM PEPTIDE1{K.K.P.V.P.I.I.Y.C.N.R.[Dab].T.[NCC[C@@H](N[*:1])C(=O)[*:2]].[Dab].C.R.R.[Nle]}$PEPTIDE1,PEPTIDE1,9:R3-16:R3$$$V2.0) | 0 | ≤0.0625 | 0.0625 | 0.0625 | – |
| CC[C@H](C)[C@H](NC(=O)[C@@H]1C[C@@H](O)CN1C(=O)[C@@H](NC(=N)N)C(C)C)C(=O)N[C@H](C(=O)N[C@@H](Cc1ccc(O)cc1)C(=O)N[C@@H]1C(=O)N[C@@H](CC(N)=O)C(=O)N[C@@H](CCCNC(=N)N)C(=O)N[C@@H](CCN)C(=O)N[C@@H](CO)C(=O)N[C@H](CCN)C(=O)N[C@@H](CCCCN)C(=O)N[C@H](C(=O)N[C@@H](CCN)C(=O)N[C@@H](CCN)C(=O)N[C@@H](Cc2ccc(O)cc2)C(=O)O)CSSC1(C)C)[C@@H](C)O [Example 197] (HELM PEPTIDE1{[CC(C)[C@H](NC(=N)N)C(=O)[*:2]].[Hyp].I.T.Y.[Pen].N.R.[Dab].S.[NCC[C@@H](N[*:1])C(=O)[*:2]].K.C.[Dab].[Dab].Y}$PEPTIDE1,PEPTIDE1,6:R3-13:R3$$$V2.0) | 0 | 0.0625 | – | 0.125 | 0.0625 |
| CC[C@H](C)[C@H](NC(=O)CN(CCN)C(=O)[C@@H](NC(=O)[C@@H]1C[C@@H](O)CN1C(=O)[C@H](CCCCN)NC(=O)[C@@H](N)CCCCN)C(C)C)C(=O)N[C@H](C(=O)N[C@@H](Cc1ccc(O)cc1)C(=O)N[C@@H]1C(=O)N[C@@H](CC(N)=O)C(=O)N[C@@H](CCCNC(=N)N)C(=O)N[C@@H](CCN)C(=O)N[C@@H]([C@@H](C)O)C(=O)N[C@H](CCN)C(=O)N[C@@H](CCCCN)C(=O)N[C@H](C(=O)N[C@@H](CCN)C(=O)N[C@@H](CCCNC(=N)N)C(=O)N[C@@H](Cc2ccc(O)cc2)C(=O)O)CSSC1(C)C)[C@@H](C)O [Example 126, Lys-Lys-Hyp-Val-Ndab-Ile-Thr-Tyr-Pen-Asn-Arg-Dab-Thr-^DDab-Lys-Cys-Dab-Arg-Tyr] (HELM PEPTIDE1{K.K.[Hyp].V.[NCCN(CC(=O)[*:2])[*:1]].I.T.Y.[Pen].N.R.[Dab].T.[NCC[C@@H](N[*:1])C(=O)[*:2]].K.C.[Dab].R.Y}$PEPTIDE1,PEPTIDE1,9:R3-16:R3$$$V2.0) | 0 | ≤0.03125 | ≤0.03125 | 0.0625 | – |
| CCCC[C@H](NC(=O)[C@H](CCCNC(=N)N)NC(=O)[C@H](CCN)NC(=O)[C@@H]1CSSC(C)(C)[C@H](NC(=O)[C@H](Cc2ccc(O)cc2)NC(=O)[C@@H](NC(=O)[C@@H](NC(=O)[C@@H]2CCCN2C(=O)[C@@H](NC(=O)[C@@H]2CCCN2)C(C)C)[C@@H](C)CC)[C@@H](C)CC)C(=O)N[C@@H](CC(N)=O)C(=O)N[C@@H](CCCNC(=N)N)C(=O)N[C@@H](CCN)C(=O)N[C@@H]([C@@H](C)O)C(=O)N[C@H](CCN)C(=O)N[C@@H](CCCCN)C(=O)N1)C(=O)O [Example 2, Pro-Val-Pro-Ile-Ile-Tyr-Pen-Asn-Arg-Dab-Thr-^DDab-Lys-Cys-Dab-Arg-Nle] (HELM PEPTIDE1{P.V.P.I.I.Y.[Pen].N.R.[Dab].T.[NCC[C@@H](N[*:1])C(=O)[*:2]].K.C.[Dab].R.[Nle]}$PEPTIDE1,PEPTIDE1,7:R3-14:R3$$$V2.0) | 0 | 0.0625 | 0.0625 | 0.25 | – |
| CC[C@H](C)[C@H](NC(=O)[C@@H](NC(=O)[C@@H]1CCCN1C(=O)[C@@H](NC(=O)[C@@H]1CCCN1C(=O)[C@H](CCCCN)NC(=O)[C@@H](N)CCCCN)C(C)C)[C@@H](C)CC)C(=O)N[C@@H](Cc1ccc(O)cc1)C(=O)N[C@H]1CSSC[C@@H](C(=O)N[C@@H](CCN)C(=O)N(CCN)CC(=O)N[C@@H](Cc2ccc(O)cc2)C(=O)O)NC(=O)[C@H](CCCCN)NC(=O)[C@@H](CCN)NC(=O)[C@H]([C@@H](C)O)NC(=O)[C@H](CCN)NC(=O)[C@H](CCCNC(=N)N)NC(=O)[C@H](CC(N)=O)NC1=O [Example 110] (HELM PEPTIDE1{K.K.P.V.P.I.I.Y.C.N.R.[Dab].T.[NCC[C@@H](N[*:1])C(=O)[*:2]].K.C.[Dab].[NCCN(CC(=O)[*:2])[*:1]].Y}$PEPTIDE1,PEPTIDE1,9:R3-16:R3$$$V2.0) | 0 | 0.125 | 0.125 | 0.125 | – |
| CC[C@H](C)[C@H](NC(=O)[C@@H](NC(=O)[C@@H]1CCCN1C(=O)[C@@H](NC(=O)[C@@H]1CCCN1C(=O)[C@H](CCCCN)NC(=O)[C@@H](N)CCCCN)C(C)C)[C@@H](C)CC)C(=O)N[C@@H](Cc1ccc(O)cc1)C(=O)N[C@H]1CSSC[C@@H](C(=O)N[C@@H](CCN)C(=O)N[C@@H](CCCNC(=N)N)C(=O)N[C@@H](CC2CC2)C(=O)O)NC(=O)[C@H](CCCCN)NC(=O)[C@@H](CCN)NC(=O)[C@H]([C@@H](C)O)NC(=O)[C@H](CCN)NC(=O)[C@H](CCCNC(=N)N)NC(=O)[C@H](CC(N)=O)NC1=O [Example 79] (HELM PEPTIDE1{K.K.P.V.P.I.I.Y.C.N.R.[Dab].T.[NCC[C@@H](N[*:1])C(=O)[*:2]].K.C.[Dab].R.[O=C(O)[C@H](CC1CC1)N[*:1]]}$PEPTIDE1,PEPTIDE1,9:R3-16:R3$$$V2.0) | 0 | 0.0625 | ≤0.03125 | 0.125 | – |
| CC[C@H](C)[C@H](NC(=O)[C@@H]1C[C@@H](O)CN1C(=O)[C@@H](NC(=O)CN(CCN)C(=O)CNCCCN)C(C)C)C(=O)N[C@H](C(=O)N[C@@H](Cc1ccc(O)cc1)C(=O)N[C@@H]1C(=O)N[C@@H](CC(N)=O)C(=O)N[C@@H](CCCNC(=N)N)C(=O)N[C@@H](CCN)C(=O)N[C@@H]([C@@H](C)O)C(=O)N[C@H](CCN)C(=O)N[C@@H](CCCCN)C(=O)N[C@H](C(=O)N[C@@H](CCN)C(=O)N[C@@H](CCCNC(=N)N)C(=O)N[C@@H](Cc2ccc(O)cc2)C(=O)O)CSSC1(C)C)[C@@H](C)O [Example 55, Norn-Ndab-Val-Hyp-Ile-Thr-Tyr-Pen-Asn-Arg-Dab-Thr-^DDab-Lys-Cys-Dab-Arg-Tyr] (H-[Gly(N(CH2)3NH2)][Gly(N-2-aminoethyl)]V[Hyp]ITY[Pen]NR[Dab]T[dDab]KC[Dab]RY-OH; disulfide 8-15) | 0 | ≤0.03125 | ≤0.03125 | 0.125 | – |
